Measurements taken from publication PMC10794137, “A new antibiotic traps lipopolysaccharide in its intermembrane transporter” (Nature, 2024).

What was measured:
LptB2FGC = assay: ATPase assay (molybdate), LptB2FGC proteoliposomes; type: biochemical, Acinetobacter baylyi; conditions: for Effect on ATPase activity: LptB2FGC liposomes, in presence of LPS
Protocol: (§1) Proteoliposomes were prepared as described previously. Aqueous E. coli polar lipid extract (Avanti Polar Lipids) (30 mg ml^−1) and aqueous LPS from E. coli EH100 (Ra mutant; Sigma) (2 mg ml^−1) were sonicated briefly for homogenization. For experiments testing the effect of LPS structure, we used LPS isolated from either GKM374 (BL21DE3 eptA::catR arnA::kanR eptC::gentR) or TXM418 (BL21DE3 eptA::catR arnA::FRT eptB::gentR lpxM::kanR) as described previously. A mixture of 20 mM Tris-HCl (pH 8.0), 150 mM NaCl, 7.5 mg ml^−1 of E. coli polar lipids, 0.5 mg ml^−1 of LPS and 0.25% DDM was prepared and kept on ice for 10 min. Purified LptB2FGC or LptB2FG was added to a final concentration of 0.86 μM and the mixture was left on ice for 20 min. The mixture was diluted 100-fold with cold 20 mM Tris-HCl (pH 8.0) and 150 mM NaCl and kept on ice for 20 min. The proteoliposomes were pelleted (300,000g, 2 h, 4 °C), resuspended in 20 mM Tris-HCl (pH 8.0) and 150 mM NaCl, diluted 100× and centrifuged (300,000g, 2 h, 4 °C). The pellets were resuspended in a mixture of 20 mM Tris-HCl (pH 8.0), 150 mM NaCl and 10% glycerol (250 μl per 100 μl of the original predilution solution), homogenized by sonication, flash frozen and stored at −80 °C until use.
ATPase assays were done using a modified molybdate method, as previously reported, with slight modifications. Assays used 30% proteoliposomes (by volume) in a mixture containing 50 mM Tris-HCl (pH 8.0), 500 mM NaCl, 10% glycerol and 2 mM MgCl2. Proteoliposome-containing reaction mixture was incubated with drug at room temperature for 10 min, as applicable. Reactions were initiated by the addition of ATP to a final concentration of 5 mM and run at 30 °C. Aliquots (5 µl) were taken at 0, 15, 30 and 45 min. Reactions were quenched with an equal volume of 12% SDS. The amounts of Pi were determined using a colorimetric method and potassium phosphate was used as a standard. Reagents were obtained from Sigma-Aldrich. After the addition of SDS, a mixture containing 10 µl of 30 mg ml^−1 of ascorbic acid, 0.5 N HCl, 5 mg ml^−1 of ammonium molybdate and 6% SDS was added. The samples were incubated at room temperature for 7 min and 15 µl of an aqueous solution containing 20 mg ml^−1 of sodium citrate tribasic dihydrate, 2 mg ml^−^1 of sodium arsenite and 2% (vol/vol) acetic acid was added. The absorbance at 850 nm was measured using a Spectramax Plus 384 (Molecular Devices) after 20 min. Error bars indicate the standard deviations of the average rates measured over three biological replicates.

LptB2FG = assay: ATPase assay (molybdate), LptB2FG proteoliposomes; type: biochemical, Acinetobacter baylyi; conditions: LptB2FG liposomes, in presence of LPS
Protocol: as §1
ATPase assays were done using a modified molybdate method, as previously reported, with slight modifications. Assays used 30% proteoliposomes (by volume) in a mixture containing 50 mM Tris-HCl (pH 8.0), 500 mM NaCl, 10% glycerol and 2 mM MgCl2. Proteoliposome-containing reaction mixture was incubated with drug at room temperature for 10 min, as applicable. Reactions were initiated by the addition of ATP to a final concentration of 5 mM and run at 30 °C. Aliquots (5 µl) were taken at 0, 15, 30 and 45 min. […] The amounts of Pi were determined using a colorimetric method and potassium phosphate was used as a standard. […] The absorbance at 850 nm was measured using a Spectramax Plus 384 (Molecular Devices) after 20 min. Error bars indicate the standard deviations of the average rates measured over three biological replicates.

LptB2FG-ΔTM-C = assay: ATPase assay (molybdate), LptB2FG-ΔTM-C proteoliposomes; type: biochemical, Acinetobacter baylyi; conditions: LptB2FG-ΔTM-C liposomes, in presence of LPS
[1] = target: His-tagged LptB2FG (ablLptB2FG) in the presence of LPS (Acinetobacter baylyi, UniProt Q6FFD6+Q6FFD7); assay: biochemical; type: binding
Chain of His-tagged LptB2FG (ablLptB2FG) in the presence of LPS (Q6FFD6 entry or part of it): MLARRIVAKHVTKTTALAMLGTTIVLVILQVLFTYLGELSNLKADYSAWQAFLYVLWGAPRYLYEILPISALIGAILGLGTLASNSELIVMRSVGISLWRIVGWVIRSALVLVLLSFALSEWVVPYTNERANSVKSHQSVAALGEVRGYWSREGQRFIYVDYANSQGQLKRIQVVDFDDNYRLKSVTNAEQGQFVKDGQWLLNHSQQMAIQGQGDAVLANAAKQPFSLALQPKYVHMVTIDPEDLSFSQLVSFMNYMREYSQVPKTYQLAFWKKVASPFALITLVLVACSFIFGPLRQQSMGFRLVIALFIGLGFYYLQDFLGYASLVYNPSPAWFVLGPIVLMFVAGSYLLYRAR
Chain of His-tagged LptB2FG (ablLptB2FG) in the presence of LPS (Q6FC66 entry or part of it, further chain): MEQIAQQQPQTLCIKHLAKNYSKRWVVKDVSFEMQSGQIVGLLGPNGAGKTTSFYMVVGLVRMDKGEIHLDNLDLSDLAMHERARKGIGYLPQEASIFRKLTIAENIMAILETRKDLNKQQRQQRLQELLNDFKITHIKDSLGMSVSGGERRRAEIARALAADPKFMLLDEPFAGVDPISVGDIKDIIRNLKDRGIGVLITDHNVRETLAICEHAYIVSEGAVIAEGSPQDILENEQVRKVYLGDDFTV
Chain of His-tagged LptB2FG (ablLptB2FG) in the presence of LPS (Q6FFD7 entry or part of it): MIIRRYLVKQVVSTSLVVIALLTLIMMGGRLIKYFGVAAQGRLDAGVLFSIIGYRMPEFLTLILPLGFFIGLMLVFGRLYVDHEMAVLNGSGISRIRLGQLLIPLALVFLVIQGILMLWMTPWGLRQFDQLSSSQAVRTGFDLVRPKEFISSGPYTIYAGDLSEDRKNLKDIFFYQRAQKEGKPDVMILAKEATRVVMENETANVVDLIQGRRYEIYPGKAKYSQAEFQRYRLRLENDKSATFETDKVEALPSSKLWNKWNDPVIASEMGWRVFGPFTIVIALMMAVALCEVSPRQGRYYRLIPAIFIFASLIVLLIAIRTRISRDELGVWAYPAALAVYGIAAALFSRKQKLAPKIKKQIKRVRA
Protocol: The binding of radioligand [^3H]-RO7223280 to ablLptB2FG and ablLptB2FGC was measured by bead-based SPA. All steps were performed in SEC buffer (20 mM Tris pH 7.5, 300 mM NaCl, 5% glycerol, 0.5 mM TCEP, 0.05% DDM ± 10 µM E.coli J5 LPS(Rc) […] (Enzo Life Sciences)) and at 4 °C unless otherwise indicated. Purified protein was first incubated with Copper PVT HIS-tag beads (Perkin Elmer) for 1.5 h under gentle rotation. Twelve radioligand concentrations were added to the PVT–protein mix and incubated for another 30 min. […] The SPA plates were sealed (TopSeal, Perkin Elmer) and stored at 4 °C overnight. Before the measurement, plates were mixed on a shaker for 20 min, 750 rpm at room temperature and the seal was thoroughly wiped with antistatic spray to reduce electrostatic events. Scintillation data were recorded with a Topcount NXT C384, in the form of three independent replicates each consisting of three technical triplicates. Specific binding was calculated by subtracting non-specific binding raw counts from total binding raw counts. The dissociation constant Kd and standard deviation of the three independent replicates are reported and were calculated by the GraphPad Prism ‘One site – specific binding’ tool.
Displacement values were normalized by including nine wells containing […] (defined as 100% competition) and nine wells containing 8 uM radioligand only (defined as 0% competition). […] The Hill coefficient was used as a quality control metric (theoretically, nH = 1 for a 1:1 competitive inhibitor) and determined with the ‘[Inhibitor] vs. response -- Variable slope (four parameters)’ tool.

LptB2FGΔTM-LptC = assay: LPS release assay, LptB2FG-ΔTM-C; type: biochemical, Acinetobacter baylyi; conditions: complex lacking LptC TM helix
Protocol: as §1
LptC(ΔTM) was purified largely as previously described. Briefly, Bl21 (λDE3) E. coli cells containing pET22/42-LptC(ΔTM)-His7 were grown to an OD600 of approximately 0.6 at 37 °C in LB media containing 50 μg ml^−1 of carbenicillin. Cells were then induced with 50 μM IPTG; allowed to grow for 2 h; harvested and resuspended in lysis buffer (50 mM Tris pH 7.4, 300 mM NaCl, 0.1 mM EDTA). Lysozyme, DNaseI and PMSF were added to final concentrations of 100 µg ml^−1, 50 µg ml^−1 and 1 mM, respectively. Cells were homogenized and subjected to passage through an EmulsiFlex-C3 high-pressure cell disruptor three times. The cell lysate was centrifuged (10,000g, 10 min) and the supernatant was further centrifuged (100,000g, 1 h). […]
The amounts of release of LPS from proteoliposomes to LptA were measured as previously described. […]

Compound | Effect on ATPase activity (LptB2FGC) | Effect on ATPase activity (LptB2FG) | Effect on ATPase activity (LptB2FG-ΔTM-C) | Ki [1] [nM] | Inhibition of LPS transport to LptA (LptB2FGΔTM-LptC) | Effect on ATPase activity with ΔLpxM LPS (LptB2FGC; LptB2FGC liposomes with LPS isolated from a ΔLpxM strain)
CN1C(=O)[C@H](CCCCN)NC(=O)[C@H](CCCN)NCc2cccnc2Sc2c(Cl)ccc(Cl)c2CNC(=O)[C@@H]1Cc1c[nH]c2ccccc12 [Compound 3] | does not affect the ATPase | increases the ATPase activity | increases the ATPase activity | 56 | inhibited | –
CN1C(=O)[C@H](CCCCN)NC(=O)[C@H](CCCN)NCc2cccnc2Sc2c(Cl)ccc(-c3ccc(N)nc3)c2CNC(=O)[C@@H]1Cc1c[nH]c2ccccc12 [Compound 1] | increases the ATPase activity | increases the ATPase activity | increases the ATPase activity | 35 | inhibited | resistant
CN1C(=O)[C@H](CCCCN)NC(=O)[C@H](CCCN)NCc2cccnc2Sc2cccc(-c3ccc(C(=O)O)cc3)c2CNC(=O)[C@@H]1Cc1c[nH]c2ccccc12 [Compound 2, Zosurabalpin] | increases the ATPase activity | increases the ATPase activity | increases the ATPase activity | 35 | inhibited | –
